Results on seven molecules are retold here after patent publication US20220295713A1, “PLANT ACTIVATOR AND A METHOD OF MANUFACTURING THE SAME” (IBIDEN CO., LTD., priority 2016, published 2022).

The test system of data set [1] is bacterial soft rot causing bacteria (Erwinia carotovora subsp. Carotovora). Briefly: Bacterial soft rot in Arabidopsis thaliana after root treatment by watering. The class given is in vivo. To be noted: comparative agents used instead of the plant activator, roots treated by watering, inoculated 24 hours after treatment. As for the experimental part:
The roots of Arabidopsis thaliana grown in the soil were treated by applying the 10 times, 100 times or 500 times diluted solution of the plant activator for test using the watering. 24 hours after the treatment, bacterial soft rot causing bacteria (Erwinia carotovora subsp. Carotovora) was inoculated on the leaves and stems above the ground. The plants were then grown at 23±2° C. in a high humidity environment for 3 days, and the disease symptoms at the pathogenic bacteria inoculated part had been evaluated up to one week after. The disease prevention effect was determined according to the following criteria.
⊚: the ratio of the area of leaves with no disease symptoms out of total area is 1.60 times or greater than the ratio observed in untreated leaves. ∘: the ratio of the area of leaves with no disease symptoms out of total area is 1.40 to 1.59 times than the ratio observed in untreated leaves. Δ: the ratio of the area of leaves with no disease symptoms out of total area is 1.20 to 1.39 times than the ratio observed in untreated leaves. X: the ratio of the area of leaves with no disease symptoms out of total area is 1.20 times less than the ratio observed in untreated leaves.
The roots of Arabidopsis thaliana were treated similar to Example 2 except that the water, peroxylipid, probenazole, isotianil, acibenzolar-S-methyl (ASM), 3′-chloro-4,4′-dimethyl-1,2,3-thiadiazole-5-carboxianilide (tiadinil), ketol fatty acid solution 1, or ketol fatty acid solution 2 was used instead of the plant activator for test.

Data set [2] concerns Tomato (cultivar "Reika"). The data set is classed as in vivo. As to conditions: farm field, plant activator 50 times diluted, applied once every week. As for the experimental part:
(§1) Tomato (cultivar “Reika”) seedlings were planted with space of 60 cm between plants in the farm field where an outburst of bacterial wilt disease was observed, and the solution of the plant activator for test, which was 50 times diluted with water, was applied either by spraying (20 mL/plant) or watering it to soil (200 mL plant) once every week. The incidences of the bacterial wilt disease and phytotoxic damage were evaluated once every week for 4 weeks.
(§2) The leaves and stems of tomatoes were treated similar to Example 6 except that the Validamycin or no agent was used instead of the plant activator for test.

In another data set the test system is bacterial wilt disease. Briefly: Bacterial wilt disease in tomatoes growing in farm field. The data set is classed as in vivo, Tomato (cultivar "Reika"). To be noted: plant activator 50 times diluted, applied once every week. As for the experimental part: as §1, §2
The subject of data set [3] is bacterial wilt disease bacteria. Briefly: Bacterial wilt disease in tomatoes grown in pot. The data set is classed as in vivo, tomatoes (cultivar "Momotaro"). To be noted: 10 mL undiluted solution by watering, grown 7 days at 30° C. after inoculation. As for the experimental part:
(§3) The leaves and stems of tomatoes (cultivar “Momotaro”) grown in the pot for 3 weeks were treated by applying 10 mL of undiluted solution of the plant activator for test using the watering. The soil (about 100 g) in the pot was moistened thoroughly before the watering. The bacterial wilt disease bacteria were inoculated on the leaves and roots of tomatoes 1 hour and 24 hours after the watering. The plants were then grown at 30° C. in a high humidity environment for 7 days, and the incidences of the bacterial wilt disease and phytotoxic damage were evaluated.
(§4) The leaves and stems of tomatoes were treated similar to Example 5 except that the water and the fatty acid (linoleic acid) were used instead of the plant activator for test.

The subject of data set [4] is salicylic acid mediated signaling pathway. Briefly: Real-time PCR gene expression in tomatoes, salicylic acid mediated signaling pathway. The class given is in vivo, tomatoes (cultivar "Momotaro"). To be noted: index, untreated tomatoes = 1. As to the method: (§5) Further, the cDNA was synthesized from total RNA isolated from each tomato 24 hours and 72 hours after the inoculation, and the expression level of individual genes specific to the salicylic acid mediated signaling pathway and the jasmonate mediated signaling pathway was analyzed by real-time PCR. In this example, the amount of the gene expression is represented by an index, which is a calculated ratio given that the amount of gene expression in untreated tomatoes is 1.
(Real-time PCR tracks product formation cycle by cycle.)

Data set [5] relates to tomatoes (cultivar "Momotaro"). Description: Phytotoxic damage in tomatoes grown in pot. The data set is classed as in vivo. As to conditions: 10 mL undiluted solution by watering, 7 days. As to the method: as §3, §4
Data set [6] deals with jasmonate mediated signaling pathway. Briefly: Real-time PCR gene expression in tomatoes, jasmonate mediated signaling pathway. The class given is in vivo, tomatoes (cultivar "Momotaro"). To be noted: index, untreated tomatoes = 1. As for the experimental part: as §5
The subject of a further data set is black point disease. Briefly: Naturally occurring black point disease in miniature roses in a planter. The data set is classed as in vivo, miniature roses (cultivar Rouge). To be noted: plant activator 100 times diluted or 0.02% mepanipyrim, sprayed once every week. As to the method: (§6) The solution of the plant activator for test, which was 100 times diluted with water, was applied to the leaves and stems of miniature roses (cultivar Rouge) planted in an outdoor planter right after the planting and once every week by spraying (about 50 mL/plant), and the naturally occurring damages due to disease (powdery mildew and black point disease) were evaluated on first week and fourth week.
(§7) The leaves and stems of miniature roses were treated similar to Example 7 except that 0.02% mepanipyrim or no agent was used instead of the plant activator for test.

The next data set deals with powdery mildew. Briefly: Naturally occurring powdery mildew in miniature roses in a planter. The data set is classed as in vivo, miniature roses (cultivar Rouge). As to conditions: plant activator 100 times diluted or 0.02% mepanipyrim, sprayed once every week. As to the method: as §6, §7

`CSC(=O)c1cccc2nnsc12` [ASM, acibenzolar-S-methyl]: the disease prevention result in data set [1] was “⊚ (the ratio of the area of leaves with no disease symptoms out of total area is 1.60 times or greater than the ratio observed in untreated leaves.)”.
For `OCC1=C[C@H](N[C@H]2C[C@H](CO)[C@@H](O[C@@H]3O[C@H](CO)[C@@H](O)[C@H](O)[C@H]3O)[C@H](O)[C@H]2O)[C@H](O)[C@@H](O)[C@@H]1O` [Validamycin], the “incidences of phytotoxic damage Week 1” value in data set [2] (Week 1) came to 100%. In addition, the “incidences of phytotoxic damage Week 2” value in data set [2] (Week 2) came out at 100%. The “incidences of phytotoxic damage Week 3” value in [2] (Week 3) is given as 100%. Moreover, the “incidences of phytotoxic damage Week 4” value in data set [2] (Week 4) came out at 100%. The “incidences of disease Week 1” value in the data set on bacterial wilt disease (Week 1) is on record as 0%. For the same molecule, the “incidences of disease Week 2” value with bacterial wilt disease (Week 2) is on record as 0%. Further, the “incidences of disease Week 3” value in the data set on bacterial wilt disease (Week 3) came to 0%. For the same molecule, the “incidences of disease Week 4” value in the data set with bacterial wilt disease (Week 4) was found to be 67%.
`CCCCC/C=C\C/C=C\CCCCCCCC(=O)O` [fatty acid, linoleic acid] displayed an incidences of disease in data set [3] of 100%. For the same molecule, the “amount of gene expression salicylic acid mediated signaling pathway 24 hours” value in data set [4] (24 hours after inoculation) turned out to be 0. Moreover, the “amount of gene expression salicylic acid mediated signaling pathway 72 hours” value in data set [4] (72 hours after inoculation) is on record as 0. Also, in data set [5], the “incidences of phytotoxic damage” value is listed as 0%. Further, the “amount of gene expression jasmonate mediated signaling pathway 24 hours” value in [6] (24 hours after inoculation) came out at 0.5. In data set [6] (72 hours after inoculation), the “amount of gene expression jasmonate mediated signaling pathway 72 hours” value was determined as 1.
Regarding `N#Cc1ccccc1NC(=O)c1snc(Cl)c1Cl` [isotianil], the disease prevention result in data set [1] was “Δ (the ratio of the area of leaves with no disease symptoms out of total area is 1.20 to 1.39 times than the ratio observed in untreated leaves.)”.
Regarding `CC#Cc1cc(C)nc(Nc2ccccc2)n1` [mepanipyrim], the “incidences of disease black point disease Week 1” value in the data set with black point disease (Week 1) was 0%. Moreover, the “incidences of disease black point disease Week 4” value in the data set with black point disease (Week 4) is recorded as 15%. Moreover, the “incidences of disease powdery mildew Week 1” value with powdery mildew (Week 1) is given as 20.0%. The “incidences of disease powdery mildew Week 4” value in the data set on powdery mildew (Week 4) is listed as 30.0%.
Turning to `C=CCOC1=NS(=O)(=O)c2ccccc21` [probenazole], in [1], the disease prevention entry is given as “Δ (the ratio of the area of leaves with no disease symptoms out of total area is 1.20 to 1.39 times than the ratio observed in untreated leaves.)”.
As for `Cc1ccc(NC(=O)c2snnc2C)cc1Cl` [tiadinil, 3′-chloro-4,4′-dimethyl-1,2,3-thiadiazole-5-carboxianilide], the disease prevention entry in data set [1] is “X (the ratio of the area of leaves with no disease symptoms out of total area is 1.20 times less than the ratio observed in untreated leaves.)”.
